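Grown in 96-well plates, cells were treated for 48 hours with each compound at five concentrations. Insufficient inhibition: endpoint recorded as highest concentration tested. GI50 is the concentration that inhibits growth by half.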 The source made the active and inactive calls. No stated cut-off is given here; in the data, active = GI50 up to about 1.1 µM and inactive = higher. Where a SMILES comes first, the peptide text is derived from it. [ ]: non-standard residue; d: D form. Ac5c = NC1(C(=O)O)CCCC1
Assays:
Experiment in all cases: NCI anticancer screen, dose series, 48 h
A549 = tested on: A549
ACHN = tested on: ACHN
HCT-15 = tested on: HCT-15
IGROV-1 = tested on: IGROV-1
KM12 = tested on: KM12
Malme-3M = tested on: Malme-3M
NCI-H522 = tested on: NCI-H522
RPMI-8226 = tested on: RPMI-8226
SK-MEL-2 = tested on: SK-MEL-2
SK-OV-3 = tested on: SK-OV-3
SNB-78 = tested on: SNB-78
SW-620 = tested on: SW-620
TK-10 = tested on: TK-10
UACC-257 = tested on: UACC-257
UO-31 = tested on: UO-31
SNB-75 = tested on: SNB-75
DU-145 = tested on: DU-145
Hs-578T = tested on: Hs-578T
MDA-MB-231 = tested on: MDA-MB-231
MDA-N = tested on: MDA-N

| SMILES | GI50 (A549) | GI50 (ACHN) | GI50 (HCT-15) | GI50 (IGROV-1) | GI50 (KM12) | GI50 (Malme-3M) | GI50 (NCI-H522) | GI50 (RPMI-8226) | GI50 (SK-MEL-2) | GI50 (SK-OV-3) | GI50 (SNB-78) | GI50 (SW-620) | GI50 (TK-10) | GI50 (UACC-257) | GI50 (UO-31) | GI50 (SNB-75) | GI50 (DU-145) | GI50 (Hs-578T) | GI50 (MDA-MB-231) | GI50 (MDA-N) |
| --- | --- | --- | --- | --- | --- | --- | --- | --- | --- | --- | --- | --- | --- | --- | --- | --- | --- | --- | --- | --- |
| CCCCCCCCC(=O)NCCCNCCCNC(=O)CCCCCCCC | 14.3 µM (inactive) | 5.75 µM (inactive) | 14.7 µM | 4.35 µM (inactive) | 2.01 µM (inactive) | 12.6 µM (inactive) | 5.05 µM (inactive) | 3.23 µM (inactive) | 3.25 µM (inactive) | 14.3 µM (inactive) | 10.9 µM (inactive) | 2.54 µM (inactive) | 15.1 µM (inactive) | 7.1 µM (inactive) | 13.2 µM (inactive) |  |  |  |  |  |
| O=C1C2CC=CCC2C(=O)C12CCc1ccccc12 (stereo not drawn) | > 100 µM (inactive) | > 100 µM (inactive) | > 100 µM | > 100 µM (inactive) |  | > 100 µM (inactive) |  |  |  | > 100 µM (inactive) | > 100 µM (inactive) | > 100 µM (inactive) | > 100 µM (inactive) |  | > 100 µM (inactive) | > 100 µM (inactive) |  |  |  |  |
| CC(C)[Si](OC/C(=C/COC(C)(C)C)[C@H]1CC=C(C(=O)c2ccccc2N2CN(C)C(=O)N(C)C2)C1)(C(C)C)C(C)C | 9.53 µM (inactive) | 14.7 µM (inactive) | 12.3 µM | 12.1 µM (inactive) | 13.7 µM (inactive) | 7.94 µM (inactive) | 7.41 µM (inactive) | 6.05 µM (inactive) | 13.6 µM (inactive) | 15.6 µM (inactive) |  | 3.17 µM (inactive) | 10.1 µM (inactive) | 6.28 µM (inactive) | 11.1 µM (inactive) | 14.1 µM (inactive) | 13.5 µM (inactive) | 2.6 µM (inactive) | 11.9 µM (inactive) | 2.18 µM (inactive) |
| O=C1c2ccccc2C(=O)c2oc(Br)cc21 | 0.344 µM (active) | 1.78 µM (inactive) | 0.566 µM | 1.24 µM (inactive) | 1.23 µM (inactive) | 0.127 µM (active) | 1.55 µM (inactive) | 1.75 µM (inactive) | 0.578 µM (active) | 2.14 µM (inactive) |  | 0.34 µM (active) | 2.9 µM (inactive) | 0.266 µM (active) | 1.47 µM (inactive) | 0.256 µM (active) | 0.214 µM (active) | 0.327 µM (active) | 2.65 µM (inactive) | 0.132 µM (active) |
| O=C1CSC(c2cc3cc(Br)ccc3nc2Cl)N1c1ccc(F)c(Cl)c1 (stereo not drawn) | > 50 µM (inactive) | > 50 µM (inactive) | 33 µM | 18.6 µM (inactive) | 35.6 µM (inactive) | > 50 µM (inactive) | 33.1 µM (inactive) | 18.1 µM (inactive) | > 50 µM (inactive) | > 50 µM (inactive) |  | 28.5 µM (inactive) | > 50 µM (inactive) | > 50 µM (inactive) | > 50 µM (inactive) | > 50 µM (inactive) | > 50 µM (inactive) | > 50 µM (inactive) | > 50 µM (inactive) | 48.3 µM (inactive) |
| Cc1cc(NS(=O)(=O)c2ccc(NC(=O)c3ccc4nc5ccccc5c(Nc5ccc(S(=O)(=O)Nc6cc(C)on6)cc5)c4c3)cc2)no1 | > 50 µM (inactive) | > 50 µM (inactive) | > 50 µM | > 50 µM (inactive) | > 50 µM (inactive) | > 50 µM (inactive) | > 50 µM (inactive) | > 50 µM (inactive) | > 50 µM (inactive) | > 50 µM (inactive) |  | > 50 µM (inactive) | > 50 µM (inactive) | > 50 µM (inactive) | > 50 µM (inactive) | > 50 µM (inactive) | > 50 µM (inactive) | > 50 µM (inactive) | > 50 µM (inactive) | > 50 µM (inactive) |
| CN(C)CCNC(=O)c1cccc2[nH]c(-c3cccnc3)nc12 | 19.8 µM (inactive) | 16.9 µM (inactive) | 24.8 µM | 32.5 µM (inactive) | 36.5 µM (inactive) |  |  |  | 25.8 µM (inactive) | 22.6 µM (inactive) | 35 µM (inactive) | 12.9 µM (inactive) | 19.8 µM (inactive) | 18.5 µM (inactive) | 17.8 µM (inactive) | 20.9 µM (inactive) |  |  |  |  |
| O=C1N[C@@H](c2c[nH]c3cc(Br)ccc23)C(=O)N[C@H]1c1c[nH]c2cc(Br)ccc12 | > 100 µM (inactive) | > 100 µM (inactive) | > 100 µM | > 100 µM (inactive) | 83.9 µM (inactive) | > 100 µM (inactive) | > 100 µM (inactive) | > 100 µM (inactive) | > 100 µM (inactive) | 35.4 µM (inactive) |  | > 100 µM (inactive) | > 100 µM (inactive) | > 100 µM (inactive) | > 100 µM (inactive) | 9.4 µM (inactive) | > 100 µM (inactive) | > 100 µM (inactive) | 17.1 µM (inactive) | > 100 µM (inactive) |
| Cn1c(=O)c2c(nc3n2CCC(=O)N3)n(C)c1=O | > 100 µM (inactive) | > 100 µM (inactive) |  | > 100 µM (inactive) | > 100 µM (inactive) | > 100 µM (inactive) | > 100 µM (inactive) |  | > 100 µM (inactive) | > 100 µM (inactive) | > 100 µM (inactive) | > 100 µM (inactive) | > 100 µM (inactive) | > 100 µM (inactive) | > 100 µM (inactive) |  |  |  |  |  |
| COc1cc2c(cc1OC)[C@H](C)N1CCc3cc(OC)c(OC)cc3[C@@H]1C2 | > 100 µM (inactive) | > 100 µM (inactive) | > 100 µM | > 100 µM (inactive) | > 100 µM (inactive) | > 100 µM (inactive) | > 100 µM (inactive) | > 100 µM (inactive) | > 100 µM (inactive) | > 100 µM (inactive) |  | > 100 µM (inactive) | > 100 µM (inactive) | > 100 µM (inactive) | > 100 µM (inactive) | > 100 µM (inactive) | > 100 µM (inactive) | > 100 µM (inactive) | > 100 µM (inactive) | > 100 µM (inactive) |
| COc1ccc(NC(C(N)=O)c2cc3cc(Br)ccc3nc2Cl)cc1 (stereo not drawn) | 91.8 µM (inactive) | > 100 µM (inactive) | 47.5 µM | 25.5 µM (inactive) | 48.4 µM (inactive) | > 100 µM (inactive) | 34 µM (inactive) | 30.4 µM (inactive) | 30.3 µM (inactive) | > 100 µM (inactive) |  | 38.7 µM (inactive) | 3.64 µM (inactive) | 71.8 µM (inactive) | > 100 µM (inactive) | 81.5 µM (inactive) | > 100 µM (inactive) | > 100 µM (inactive) | 90.6 µM (inactive) | 28.1 µM (inactive) |
| CCCCCCCCCCCCSC(=S)c1c(C)[nH]n(-c2ccccc2)c1=O | 11.8 µM (inactive) | 16.9 µM (inactive) | 1.93 µM | 14.6 µM (inactive) |  | 10.7 µM (inactive) |  | 11.2 µM (inactive) |  | 16.3 µM (inactive) | 29.8 µM (inactive) | 16.4 µM (inactive) | 22.2 µM (inactive) | 8.04 µM (inactive) | 13.6 µM (inactive) |  |  |  |  |  |
| CCCCCCNC(=O)c1cc(CCc2cc(O)ccc2O)ccc1O | 7.83 µM (inactive) | 2.66 µM (inactive) | 2.48 µM | 2.1 µM (inactive) | 4.46 µM (inactive) | 2.35 µM (inactive) | 0.916 µM (active) | 1.11 µM (active) | 2.74 µM (inactive) | 9.95 µM (inactive) |  | 7.66 µM (inactive) | 2.96 µM (inactive) | 2.2 µM (inactive) | 1.55 µM (inactive) | 4.93 µM (inactive) | 6.78 µM (inactive) | 3.59 µM (inactive) | 2.25 µM (inactive) | 2.66 µM (inactive) |
| NC1(C(=O)NC2(C(=O)O)CCCC2)CCCC1 (H-[Ac5c]-[Ac5c]-OH) | > 100 µM (inactive) | > 100 µM (inactive) | > 100 µM | > 100 µM (inactive) | > 100 µM (inactive) | > 100 µM (inactive) | > 100 µM (inactive) | > 100 µM (inactive) | > 100 µM (inactive) | > 100 µM (inactive) |  | > 100 µM (inactive) | > 100 µM (inactive) | > 100 µM (inactive) | > 100 µM (inactive) | > 100 µM (inactive) | > 100 µM (inactive) | > 100 µM (inactive) | > 100 µM (inactive) | > 100 µM (inactive) |
| CCCC[C@H]1C(=O)O[C@H](C)[C@H](NC(=O)c2cccc(NC=O)c2O)C(=O)O[C@@H](C)[C@@H]1OC(=O)CC(C)C [ANTIMYCIN A3] | 0.0441 µM (active) | 1.15 µM (inactive) | < 0.01 µM | 3.94 µM (inactive) | 0.444 µM (active) | 7.28 µM (inactive) | 5.93 µM (inactive) | 0.109 µM (active) | 1.97 µM (inactive) | 12 µM (inactive) |  | 8.18 µM (inactive) | 6.79 µM (inactive) | 0.04 µM (active) | 4.94 µM (inactive) | 21.4 µM (inactive) | 3.55 µM (inactive) | 13 µM (inactive) | 4.37 µM (inactive) | 2.43 µM (inactive) |
| C[C@H](CCC(=O)O)[C@H]1CC[C@H]2[C@@H]3CC[C@@H]4C[C@H](O)CC[C@]4(C)[C@H]3C[C@H](O)[C@]12C [DEOXYCHOLIC ACID] | 35.9 µM (inactive) | 37.8 µM (inactive) | 36.1 µM | 27.9 µM (inactive) | 49.4 µM (inactive) | 32.8 µM (inactive) | 28 µM (inactive) | 25.8 µM (inactive) | 31.2 µM (inactive) | 26.7 µM (inactive) |  | 47.8 µM (inactive) | > 100 µM (inactive) | 92.3 µM (inactive) | 37.6 µM (inactive) | 37.1 µM (inactive) | 65.6 µM (inactive) | 40.7 µM (inactive) | 41.5 µM (inactive) | 42.2 µM (inactive) |
